Measured values published in patent US20050239751A1, “Heterocyclic anti-viral compounds comprising metabolizable moieties and their uses” (Rigel Pharmaceuticals, Inc., priority 2004, published 2005).
Read-outs that look alike come from different tables or passages of the source.

How the values were obtained:
[1] = system: HCV replicon in 5-2 Luc replicon-comprising cells; assay: HCV replicon assay (luciferase; HEPC_REPLICON-LUC); format: cell-based, Hepatitis C virus; conditions: Hepatitis C virus
Description: In one embodiment, the inhibitory activity of the metabolically active agent of the prodrug can be confirmed in a replicon assay that assesses the ability of a test compound to block or inhibit HCV replication in replicon cells. One example of a suitable replicon assay is the liver cell-line Huh 7-based replicon assay described in Lohmann et al., 1999, Science 285:110-113. A specific example of this replicon assay which utilizes luciferase translation is provided in the Examples Section. In one embodiment of this assay, the amount of test prodrug that yields a 50% reduction in translation as compared to a control cell (IC50) may be determined.
The inhibitory activity of certain prodrugs of the invention, which may inhibit HCV translation or replication prior to metablism and/or are metabolized into active agents, was confirmed using an HCV replicon assay. The HCV replicon can include such features as the HCV 5′ untranslated region including the HCV IRES, the HCV 3′ untranslated region, selected HCV genes encoding HCV polypeptides, selectable markers, and a reporter gene such as luciferase, GFP, etc. In the assay, actively dividing 5-2 Luc replicon-comprising cells (obtained from Ralf Bartenschlager; see Lohmann et al., 1999, Science 285:110-113) were seeded at a density of between about 5,000 and 7,500 cells/well onto 96 well plates (about 90 µl of cells per well) and incubated at 37° C. and 5% CO2 for 24 hours. Then, the test prodrug (in a volume of about 10 PI) was added to the wells at various concentrations and the cells were incubated for an additional 24-48 hours before luciferase assay. The media was aspirated from each well and Bright-Glo (Promega, Madison, WI) luciferase assay reagents were added to each well according to the manufacturer's instructions. Briefly, the BrightGlo reagent was diluted 1:1 with PBS and 100 µl of diluted reagent was added to each well. After 5 min of incubation at room temperature, luciferin emission was quantified with a luminometer. In this assay, the amount of test prodrug that yielded a 50% reduction in luciferase emission (IC50) was determined. This IC50 value may represent the antiviral activity of the prodrug itself, the activity of prodrug transformed into its active metabolized form, or a combination of the two.
In TABLES 3 through 12, a value of “+” indicates an IC50 of 10 μM or less in the specified assay; a value of “−” indicates an IC50 of greater than 10 μM in the specified assay.

[2] = Rat pharmacokinetic study, portal and jugular vein cannula, oral administration; format: in vivo
Method: Pharamcokinetic studies were conducted in rats containing surgically implanted cannula in the portal and jugular veins. Blood samples were taken simultaneously from both cannula at various times after oral administration of the compounds. In the portal vein, the prodrugs are detected and, in some cases, the active compound, A-B-C-NHCOCHX2, has also been detected. The presence of active compound in the portal vein samples has been attributed to metabolism of the prodrug in transit through the gut wall. […] In the jugular samples, many, but not all, of the prodrugs have been detected in systemic circulation, depending on the hepatic extraction ratio of the prodrug.
Compounds were dissolved in a mixture of TPGS:PEG:PG (35%:60%:5%) and diluted with saline for oral administration. Typically, 6.5mg of compound was dissolved in 1 ml of the organic mixture and added to 5.5 ml of saline. Animals were dosed with 5 ml/kg of this mixture to give a typical dose of 5 mg/kg. All animal studies were conducted in male SpraqueDawley rats and the animals were fasted overnight prior to dose administration. Surgeries (to implant blood sampling cannula) were conducted at least two days prior to the study. […] Samples were centrifuged and the supernatant was analyzed by LC/MS/MS using the procedures outlined above. […]

[3] = Biliary excretion in rats after oral administration; format: in vivo; conditions: rat, four hours after oral administration
Method: Evidence for the conversion of prodrug 1107 to its active metabolite in rat liver was obtained by measuring prodrug and active compound concentrations in bile fluid.
Compounds were dissolved in a mixture of TPGS:PEG:PG (35%:60%:5%) and diluted with saline for oral administration. Typically, 6.5mg of compound was dissolved in 1 ml of the organic mixture and added to 5.5 ml of saline. Animals were dosed with 5 ml/kg of this mixture to give a typical dose of 5 mg/kg. All animal studies were conducted in male SpraqueDawley rats and the animals were fasted overnight prior to dose administration. Surgeries (to implant blood sampling cannula) were conducted at least two days prior to the study. Blood samples (100 μl) were collected using sodium heparin as anticoagulant and added to 300 μl of a mixture of acetate buffer (100 mM, pH=6.5):acetonitrile:ethanol:DMSO (2:1:1:2 v/v). Samples were centrifuged and the supernatant was analyzed by LC/MS/MS using the procedures outlined above. Standard were prepared similarly using fresh rat blood from naive animals.
Esterases are present in various tissues in the liver and may further degrade the active parent compound prior to reaching the HepC virus that is localized within hepatocyte cells. Experiments with radio-labeled the active parent compound indicate that the active parent compound is excreted from the body through bile (data not shown). […]

[4] = system: HCV NS5A protein in 9-13 replicon cells; assay: Replicon quantitative Western blot assay (HEPC_REPLICON-ICWESTERN); format: cell-based; conditions: Hepatitis C virus; Table 14; read-out: HEPC_REPLICON-ICWESTERN Result Value
Method: Alternatively, the inhibitory activity of the metabolically active agents of the prodrugs can be confirmed using a quantitative Western immunoblot assay utilizing antibodies specific for HCV non-structural proteins, such as NS3, NS4A NS5A and NS5B. In one embodiment of this assay, replicon cells are treated with varying concentrations of test prodrug to determine the concentration of the metabolically active agent of the test prodrug that yields a 50% reduction in the amount of a non-structural protein produced as compared to a control sample (IC50). A single non-structural protein may be quantified or multiple non-structural proteins may be quantified. Antibodies suitable for carrying out such immunoblot assays are available commercially (e.g., from BIODESIGN International, Saco, Me.).
Certain prodrugs of the invention, which may inhibit HCV translation or replication prior to metablism and/or are metabolized into active agents, were also tested for their ability to inhibit HCV replication using a quantitative Western blot analysis with antibodies specific for the HCV NS5A or other non-structural proteins. Actively dividing 9-13 replicon cells were seeded into 6-well plates at a density of 1×10^5 cells/well in a volume of 2 ml/well and incubated at 37° C. and 5% CO2 for 24 hours. Various concentrations of test prodrugs (in a volume of 10 ul) were added to the wells and the cells incubated for another 48 hours. Protein samples were prepared from the cultured cells, resolved on a SDS-PAGE gel and transferred to a nitrocellulose membrane. The membrane was blocked with 5% non-fat milk in PBS for 1 hour at room temperature. Primary antibody (anti NS5A antibody; BIODESIGN International, Saco, Me.) incubation was performed for 1 hour at room temperature, after which the membrane was washed 3 times (for 15 min per time) with PBST (PBS plus 0.1% Tween 20). Horseradish peroxidase conjugated secondary antibody incubation was performed for 1 hour at room temperature and the membrane was washed 3 times (for 15 min per time) with PBST. The membrane was then soaked in substrate solution (Pierce) and exposed to a film or quantified using an imager. In this assay, the amount of test prodrug that is believed to be transformed into an active agent under the given conditions that yielded a 50% reduction in the amount of NS5A protein translated as compared to a control sample (IC50) was determined.

[5] = Table 14, read-out: HEPC_REPLICON-LUC Result Value

Structure (SMILES) | IC50 [1, 5] | IC50 [4] | other results
CC(C)(C)c1oc(=O)oc1CN(C(=O)C(Cl)Cl)c1ccnc(-c2cc(-c3c(Cl)cccc3Cl)no2)c1 [Cpd. 1107, 2,2-dichloro-N-[2′-[3′-(2′,6′-dichlorophenyl)-5′-isoxazoyl](4-pyridyl)]-N-[(5-t-butyl-1,3-dioxolene-2-one4-yl)methylene] acetamide] | – | – | IC50 ([1]; Tables 3-12, 50% reduction in luciferase emission, 5-2 Luc replicon cells, read-out: Replicon (IC50)): ≤ 10000 nM; Cmax ([2]; Sprague-Dawley, rat, whole blood, typical dose of 5 mg/kg, male rats, read-out: Rat PK Cmax, Prodrug): 510 ng/mL; Rat PK Hepatic extraction ratio of Prodrug ([2]; portal and jugular vein sampling): 0.97; Prodrug and resultant active compound levels in bile fluid [3]: High levels
O=C(C(Cl)Cl)N(CCCc1ccc(N2CCNCC2)cc1)c1ccnc(-c2cc(-c3c(Cl)cccc3Cl)no2)c1 [Cpd. 1043, 2,2-Dichloro-N-(2-(3-(2,6-dichlorophenyl)isoxazol-5-yl)pyridin-4-yl)-N-(3-(4-(piperazin-1-yl)phenyl)propyl)acetamide] | 1000 to 20000 nM | 1000 to 20000 nM | –
O=C(C(Cl)Cl)N(Cc1ccc(OCCN2CCOCC2)cc1)c1ccnc(-c2cc(-c3c(Cl)cccc3Cl)no2)c1 [Cpd. 1022, 2,2-Dichloro-N-(2-(3-(2,6-dichlorophenyl)isoxazol-5-yl)pyridin-4-yl)-N-(4-(2-morpholinoethoxy)benzyl)acetamide] | – | < 1000 nM | –
O=C(c1cccc(-c2cc(-c3c(Cl)cccc3Cl)no2)c1)N(Cc1oc(=O)oc1COC1CC(O)C(O)C(CO)O1)C(=O)C(Cl)Cl (stereo not shown) [Cpd. 1044] | < 1000 nM | < 1000 nM | –
O=C(C(Cl)Cl)N(CCCc1ccc(CP(=O)(O)O)cc1)c1ccnc(-c2cc(-c3c(Cl)cccc3Cl)no2)c1 [Cpd. 1042, 4-(3-(2,2-Dichloro-N-(2-(3-(2,6-dichlorophenyl)isoxazol-5-yl)pyridin-4-yl)acetamido)propyl)benzylphosphonic Acid] | – | > 20000 nM | –
CC(C)(C)OP(=O)(Cc1ccc(CCCN(C(=O)C(Cl)Cl)c2ccnc(-c3cc(-c4c(Cl)cccc4Cl)no3)c2)cc1)OC(C)(C)C [Cpd. 1041, Di-tert-Butyl 4-(3-(2,2-Dichloro-N-(2-(3-(2,6-dichlorophenyl)isoxazol-5-yl)pyridin-4-yl)acetamido)propyl)benzylphosphonate] | 1000 to 20000 nM | 1000 to 20000 nM | –
CCN1CCN(c2ccc(CN(C(=O)C(Cl)Cl)c3ccnc(-c4cc(-c5c(Cl)cccc5Cl)no4)c3)cc2)CC1 [Cpd. 1023, 2,2-Dichloro-N-(2-(3-(2,6-dichlorophenyl)isoxazol-5-yl)pyridin-4-yl)-N-(4-(4-ethylpiperazin-1-yl)benzyl)acetamide] | – | < 1000 nM | –
